Laboratory results: patent publication US8142812B2, “Chemical carrier based on a beta-limit dextrin” (Glycologic Limited, priority 2002, dated 2012)

Experiment: Drug interaction and stability with β-limit dextrin in solution
Assay type: physicochemical
Description: There are many potential applications with respect to dispersing and solubilising insoluble compounds. […] Drug interaction and stability with β-limit dextrin in solution

[1] = drug 1% in β-limit dextrin (5%)
[2] = drug 1% in β-limit dextrin (10%)

| Drug interaction and stability in solution (drug 1% in Water) | Drug interaction and stability in solution [1] | Drug interaction and stability in solution [2] | Compound |
| --- | --- | --- | --- |
| Dissolved | Dissolved | Dissolved | O=C1O[C@H]([C@@H](O)CO)C(O)=C1O [Ascorbic acid] |
| Not suspended | Suspended | Suspended | CC(=O)Oc1ccccc1C(=O)O [Aspirin] |
| Not suspended | Suspended | Suspended | Cn1c(=O)c2[nH]cnc2n(C)c1=O [Theophylline] |
